Patent US7132504B2, “Hepatitis C virus inhibitors” (Bristol-Myers Squibb Company, priority 2003, dated 2006)

How the values were obtained:
[1] = target: T1, HCV NS3/4A protease complex (UniProt P27958, C1454S/C1711G, species not given); assay: Recombinant HCV NS3/4A protease complex FRET peptide assay (strain not stated); assay type: biochemical; conditions: NS3/4A protease enzyme assay, read-out: Activity Range IC50
T1 construct: fused on or other part: Three-lysine solubilising tail at the C-terminus of NS4A
Description: The purpose of this in vitro assay was to measure the inhibition of HCV NS3 protease complexes, derived from the BMS strain, H77 strain or J416S strain, as described below, by compounds of the present invention. This assay provides an indication of how effective compounds of the present invention would be in inhibiting HCV proteolytic activity.
Serum from an HCV-infected patient was obtained from Dr. T. Wright, San Francisco Hospital. An engineered full-length cDNA (compliment deoxyribonucleic acid) template of the HCV genome (BMS strain) was constructed from DNA fragments obtained by reverse transcription-PCR (RT-PCR) of serum RNA (ribonucleic acid) and using primers selected on the basis of homology between other genotype 1a strains. From the determination of the entire genome sequence, a genotype 1a was assigned to the HCV isolate according to the classification of Simmonds et al. (See P Simmonds, K A Rose, S Graham, S W Chan, F McOmish, B C Dow, E A Follett, P L Yap and H Marsden, J. Clin. Microbiol., 31(6), 1493–1503 (1993)). […] The infectious clones, H77 (1a genotype) and J4L6S (1b genotype) were obtained from R. Purcell (NIH) and the sequences are published in Genbank (AAB67036, see Yanagi, M., Purcell, R. H., Emerson, S. U. and Bukh, J. Proc. Natl. Acad. Sci. U.S.A. 94(16), 8738–8743 (1997); AF054247, see Yanagi, M., St Claire, M., Shapiro, M., Emerson, S. U., Purcell, R. H. and Bukh, J, Virology 244 (1), 161–172. (1998)).
The H77 and J4L6S strains were used for production of recombinant NS3/4A protease complexes. DNA encoding the recombinant HCV NS3/4A protease complex (amino acids 1027 to 1711) for these strains were manipulated as described by P. Gallinari et al. (see Gallinari P, Paolini C, Brennan D, Nardi C, Steinkuhler C, De Francesco R. Biochemistry. 38(17):5620–32, (1999)). Briefly, a three-lysine solubilizing tail was added at the 3′-end of the NS4A coding region. The cysteine in the P1 position of the NS4A–NS4B cleavage site (amino acid 1711) was changed to a glycine to avoid the proteolytic cleavage of the lysine tag. Furthermore, a cysteine to serine mutation was introduced by PCR at amino acid position 1454 to prevent the autolytic cleavage in the NS3 helicase domain. The variant DNA fragment was cloned in the pET21b bacterial expression vector (Novagen) and the NS3/4A complex was expressed in Escherichia. coli strain BL21 (DE3) (Invitrogen) following the protocol described by P. Gallinari et al. (see Gallinari P, Brennan D, Nardi C, Brunetti M, Tomei L, Steinkuhler C, De Francesco R., J Virol. 72(8):6758–69 (1998)) with modifications. Briefly, the NS3/4A protease complex expression was induced with 0.5 millimolar (mM) Isopropyl β-D-1-thiogalactopyranoside (IPTG) for 22 hours (h) at 20° C. A typical fermentation (1 Liter (L)) yielded approximately 10 grams (g) of wet cell paste. The cells were resuspended in lysis buffer (10 mL/g) consisting of 25 mM N-(2-Hydroxyethyl)Piperazine-N′-(2-Ethane Sulfonic acid) (HEPES), pH 7.5, 20% glycerol, 500 mM Sodium Chloride (NaCl), 0.5% Triton X-100, 1 microgram/milliliter (“μg/mL”) lysozyme, 5 mM Magnesium Chloride (MgCl2), 1 μg/ml Dnasel, 5 mM β-Mercaptoethanol (βME), Protease inhibitor—Ethylenediamine Tetraacetic acid (EDTA) free (Roche), homogenized and incubated for 20 minutes (min) at 4° C. The homogenate was sonicated and clarified by ultra-centrifugation at 235000 g for 1 h at 4° C. Imidazole was added to the supernatant to a final concentration of 15 mM and the pH adjusted to 8.0. The crude protein extract was loaded on a Nickel—Nitrilotriacetic acid (Ni-NTA) column pre-equilibrated with buffer B (25 mM HEPES, pH 8.0, 20% glycerol, 500 mM NaCl, 0.5% Triton X-100, 15 mM imidazole, 5 mM βME). The sample was loaded at a flow rate of 1 mL/min. The column was washed with 15 column volumes of buffer C (same as buffer B except with 0.2% Triton X-100). The protein was eluted with 5 column volumes of buffer D (same as buffer C except with 200 mM Imidazole). […]

[2] = target: T2, human neutrophil elastase (HNE) (Homo sapiens, UniProt P08246); assay: Specificity assay, human neutrophil elastase; assay type: biochemical; conditions: 2 h enzyme-inhibitor pre-incubation
T2 construct: purchased Sigma
T2 sequence (P08246 30-267): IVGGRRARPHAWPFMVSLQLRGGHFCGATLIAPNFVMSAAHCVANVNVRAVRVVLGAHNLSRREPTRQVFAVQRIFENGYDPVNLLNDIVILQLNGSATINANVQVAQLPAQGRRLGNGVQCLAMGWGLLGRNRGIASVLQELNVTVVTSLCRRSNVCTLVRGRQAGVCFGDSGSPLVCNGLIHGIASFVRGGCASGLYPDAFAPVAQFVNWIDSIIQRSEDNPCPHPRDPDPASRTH
Procedure: The specificities of compounds of the present invention were determined against a variety of serine proteases: human neutrophil elastase (HNE), porcine pancreatic elastase (PPE) and human pancreatic chymotrypsin and one cysteine protease: human liver cathepsin B. In all cases a 96-well plate format protocol using colorimetric p-nitroaniline (pNA) substrate specific for each enzyme was used as described previously (PCT Patent Application No. WO 00/09543) with some modifications to the serine protease assays. All enzymes were purchased from Sigma while the substrates were from Bachem.
Each assay included a 2 h enzyme-inhibitor pre-incubation at room temperature followed by addition of substrate and hydrolysis to ˜30% conversion as measured on a Spectramax Pro microplate reader. Compound concentrations varied from 100 to 0.4 μM depending on their potency. […]
The percentage of inhibition was calculated using the formula: [1−((UVinh−UVblank)/(UVctl−UVblank))]×100 […]

Compound C=CC1C[C@]1(NC(=O)[C@@H]1C[C@@H](Oc2cc(-c3ccccc3)nc3cc(OC)ccc23)CN1C(=O)[C@@H](NC(=O)OC)C(C)(C)C)C(=O)NS(=O)(=O)N(C)Cc1ccccc1 (some centres unmarked) [Compound 9] has an IC50 [1] of less than 0.15 µM and an IC50 [2] of 46 µM.
